Where a name gives a salt, the structure may show the parent alone.
Target: T1, human mGluR2 (Homo sapiens, UniProt Q14416)
T1 construct: expressed in transfected cells; host or cells: HEK293 clonal line
Experiment: mGluR2 cAMP assay
Format: cell-based
Conditions: EC50 (nM), activity in mGluR2 cAMP assay, clonally expressed human mGluR2 in HEK293; 1 μM forskolin, 1 μM LY-341495, 30 min; CISBIO cAMP kit
Procedure: On the day of the assay, media was removed, cells washed with PBS, cells harvested and pelleted by centrifugation. Cell pellets were resuspended in stimulation buffer without forskolin and counted. […] A standard curve was created using a top concentration of cAMP of 1 μM in the stimulation buffer, 1:3 dilutions over 14 points in the absence of cells. […] In house software converted the fluorescence value ratios to units of cAMP concentration, which is then used to calculate % inhibition for each test compound. MGluR2 cAMP Assay Materials and Methods. […] Buffer without forskolin was used as a negative control. Solutions of D2 and cryptate detection reagents from the CISBIO dynamic cAMP kit (62AM4PEJ) were diluted 1:40 in lysis buffer. Lysis buffer consisted of 50 mM Phosphate Buffer pH 7.0, 800 mM Potassium Fluoride, 0.2% BSA, and 1.0% Triton. Assay reaction was terminated by addition of detection reagents in lysis buffer. One hour later, plates were read on a PE Viewlux. Data was extracted, and concentration response curves generated by fitting the data to a standard 4 parameter logistic equation from which EC50 values were determined.

T1 sequence (Q14416 19-872): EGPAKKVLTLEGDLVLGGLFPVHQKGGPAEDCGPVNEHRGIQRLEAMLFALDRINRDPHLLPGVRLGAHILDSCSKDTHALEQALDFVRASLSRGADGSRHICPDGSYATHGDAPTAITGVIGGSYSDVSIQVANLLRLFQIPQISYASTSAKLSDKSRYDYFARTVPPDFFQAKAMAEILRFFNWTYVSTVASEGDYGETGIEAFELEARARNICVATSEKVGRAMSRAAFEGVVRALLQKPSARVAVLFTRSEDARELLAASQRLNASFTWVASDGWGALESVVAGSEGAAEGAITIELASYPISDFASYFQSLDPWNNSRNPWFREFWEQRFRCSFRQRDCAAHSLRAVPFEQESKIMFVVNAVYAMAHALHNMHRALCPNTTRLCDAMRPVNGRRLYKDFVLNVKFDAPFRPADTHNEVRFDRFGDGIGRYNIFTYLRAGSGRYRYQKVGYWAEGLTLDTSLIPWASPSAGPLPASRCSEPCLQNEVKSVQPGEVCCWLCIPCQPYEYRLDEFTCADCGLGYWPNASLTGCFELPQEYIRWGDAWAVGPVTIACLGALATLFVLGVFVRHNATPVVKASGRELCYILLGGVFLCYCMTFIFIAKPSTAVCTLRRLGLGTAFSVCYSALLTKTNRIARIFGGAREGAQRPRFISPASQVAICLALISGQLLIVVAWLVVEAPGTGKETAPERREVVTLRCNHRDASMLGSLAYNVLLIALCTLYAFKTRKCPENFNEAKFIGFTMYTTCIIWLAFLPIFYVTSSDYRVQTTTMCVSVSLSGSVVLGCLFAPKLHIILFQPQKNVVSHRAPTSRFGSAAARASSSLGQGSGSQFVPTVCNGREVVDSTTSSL

SMILES	EC50
Fc1ccc([C@H]2C[C@@H]2COc2ccn3c(CC4CC4)nnc3c2C(F)(F)F)cc1 (racemic) [Example 77, (±)-3-(Cyclopropylmethyl)-7-(((1S,2S)-2-(4-fluorophenyl)cyclopropyl)methoxy)-8-(trifluoromethyl)-[1,2,4]triazolo[4,3-a]pyridine]	1.7 nM

Same assay, conditions: clonally expressed human mGluR2 in HEK293; 1 μM forskolin, 1 μM LY-341495, 30 min; CISBIO cAMP kit; read-out: EC50 (nM), activity in mGluR2 cAMP assay

EC50	SMILES
1 nM	CC(COc1ccn2c(CC3CC3)nnc2c1C(F)(F)F)c1c(F)cccc1Cl (racemic) [Example 5, 7-(2-(2-Chloro-6-fluorophenyl)propoxy)-3-(cyclopropylmethyl)-8-(trifluoromethyl)-[1,2,4]triazolo[4,3-a]pyridine]
130 nM	CC(C#N)(COc1ccn2c(CC3CC3)nnc2c1C(F)(F)F)c1ccc(F)cc1 (racemic) [Example 12, 3-(3-(Cyclopropylmethyl)-8-(trifluoromethyl)-[1,2,4]triazolo[4,3-a]pyridin-7-yloxy)-2-(4-fluorophenyl)-2-methylpropanenitrile, TFA salt]
31 nM	COC(C)(COc1ccn2c(CC3CC3)nnc2c1C(F)(F)F)c1ccc(F)cc1 (racemic) [Example 21, 3-(Cyclopropylmethyl)-7-(2-(4-fluorophenyl)-2-methoxypropoxy)-8-(trifluoromethyl)-[1,2,4]triazolo[4,3-a]pyridine]
0.3 nM	COc1cccc(F)c1[C@H]1C[C@@H]1COc1ccn2c(CC3CC3)nnc2c1C(F)(F)F (racemic) [Example 32, (±)-3-(Cyclopropylmethyl)-7-(((1S,2S)-2-(2-fluoro-6-methoxyphenyl)cyclopropyl)methoxy)-8-(trifluoromethyl)-[1,2,4]triazolo[4,3-a]pyridine]
0.2 nM	COc1ccccc1[C@H]1C[C@@H]1COc1ccn2c(CC3CC3)nnc2c1C(F)(F)F (racemic) [Example 37, (±)-3-(Cyclopropylmethyl)-7-(((1S,2S)-2-(2-methoxyphenyl)cyclopropyl)methoxy)-8-(trifluoromethyl)-[1,2,4]triazolo[4,3-a]pyridine]
1.4 nM	FC(F)(F)Oc1ccccc1[C@H]1C[C@@H]1COc1ccn2c(CC3CC3)nnc2c1C(F)(F)F (racemic) [Example 38, (±)-3-(Cyclopropylmethyl)-7-(((1S,2S)-2-(2-(trifluoromethoxy)phenyl)cyclopropyl)methoxy)-8-(trifluoromethyl)-[1,2,4]triazolo[4,3-a]pyridine]
1.4 nM	Fc1ccccc1[C@H]1C[C@@H]1COc1ccn2c(CC3CC3)nnc2c1C(F)(F)F (racemic) [Example 43, (±)-3-(Cyclopropylmethyl)-7-(((1S,2S)-2-(2-fluorophenyl)cyclopropyl)methoxy)-8-(trifluoromethyl)-[1,2,4]triazolo[4,3-a]pyridine]
1.9 nM	Fc1ccc(F)c([C@H]2C[C@@H]2COc2ccn3c(CC4CC4)nnc3c2C(F)(F)F)c1 (racemic) [Example 44, (±)-3-(Cyclopropylmethyl)-7-(((1S,2S)-2-(2,5-difluorophenyl)cyclopropyl)methoxy)-8-(trifluoromethyl)-[1,2,4]triazolo[4,3-a]pyridine]
1.3 nM	COc1ccc([C@H]2C[C@@H]2COc2ccn3c(CC4CC4)nnc3c2C(F)(F)F)cc1 (racemic) [Example 45, (±)-3-(Cyclopropylmethyl)-7-(((1S,2S)-2-(4-methoxyphenyl)cyclopropyl)methoxy)-8-(trifluoromethyl)-[1,2,4]triazolo[4,3-a]pyridine]
0.8 nM	COc1c(F)ccc(F)c1[C@H]1C[C@@H]1COc1ccn2c(CC3CC3)nnc2c1C(F)(F)F (racemic) [Example 47, (±)-3-(Cyclopropylmethyl)-7-(((1S,2S)-2-(3,6-difluoro-2-methoxyphenyl)cyclopropyl)methoxy)-8-(trifluoromethyl)-[1,2,4]triazolo[4,3-a]pyridine]
0.5 nM	Fc1cccc(Cl)c1[C@H]1C[C@@H]1COc1ccn2c(CC3CC3)nnc2c1C(F)(F)F (racemic) [Example 48, (±)-7-(((1S,2S)-2-(2-chloro-6-fluorophenyl)cyclopropyl)methoxy)-3-(cyclopropylmethyl)-8-(trifluoromethyl)-[1,2,4]triazolo[4,3-a]pyridine]
0.4 nM	COc1cc(F)ccc1[C@H]1C[C@@H]1COc1ccn2c(CC3CC3)nnc2c1C(F)(F)F (racemic) [Example 49, (±)-3-(Cyclopropylmethyl)-7-(((1S,2S)-2-(4-fluoro-2-methoxyphenyl)cyclopropyl)methoxy)-8-(trifluoromethyl)-[1,2,4]triazolo[4,3-a]pyridine]
5.8 nM	FC(COc1ccn2c(CC3CC3)nnc2c1C(F)(F)F)c1ccccc1 (racemic) [Example 84, 3-(Cyclopropylmethyl)-7-(2-fluoro-2-phenylethoxy)-8-(trifluoromethyl)-[1,2,4]triazolo[4,3-a]pyridine]
25 nM	FC(F)(F)c1c(OCc2ccccc2)ccn2c(CC3CC3)nnc12 (racemic) [Example 85, 7-(Benzyloxy)-3-(cyclopropylmethyl)-8-(trifluoromethyl)-[1,2,4]triazolo[4,3-a]pyridine]
6.9 nM	CO[C@]1(c2ccc(F)cc2)CC[C@H](Oc2ccn3c(C4CC4(F)F)nnc3c2C(F)(F)F)CC1 (mixture of isomers) [Example 86, (±)-3-(2,2-Difluorocyclopropyl)-7-((1s,4s)-4-(4-fluorophenyl)-4-methoxycyclohexyloxy)-8-(trifluoromethyl)-[1,2,4]triazolo[4,3-a]pyridine]
12 nM	CO[C@]1(c2ccc(F)cc2)CC[C@H](Oc2ccn3c(C4CC4(C)C)nnc3c2C(F)(F)F)CC1 (mixture of isomers) [Example 94, 3-(2,2-Dimethylcyclopropyl)-7-((1s,4s)-4-(4-fluorophenyl)-4-methoxycyclohexyloxy)-8-(trifluoromethyl)-[1,2,4]triazolo[4,3-a]pyridine]
41 nM	CO[C@]1(c2ccc(F)cc2)CC[C@H](Oc2ccn3c([C@@H]4C[C@H]4F)nnc3c2C(F)(F)F)CC1 (relative stereo) [Example 89, (±)-rel-3-((1S,2R)-2-Fluorocyclopropyl)-7-((1s,4s)-4-(4-fluorophenyl)-4-methoxycyclohexyloxy)-8-(trifluoromethyl)-[1,2,4]triazolo[4,3-a]pyridine]
0.8 nM	C[C@@H](COc1ccn2c(CC3CC3)nnc2c1C(F)(F)F)c1c(F)cccc1Cl (single isomer, unassigned) [Example 9]
0.8 nM	C[C@H](COc1ccn2c(CC3CC3)nnc2c1C(F)(F)F)c1c(F)cccc1Cl (single isomer, unassigned) [Example 10]
230 nM	C[C@@](C#N)(COc1ccn2c(CC3CC3)nnc2c1C(F)(F)F)c1ccc(F)cc1 (single isomer, unassigned) [Example 14]
80 nM	C[C@](C#N)(COc1ccn2c(CC3CC3)nnc2c1C(F)(F)F)c1ccc(F)cc1 (single isomer, unassigned) [Example 15]
36 nM	CO[C@@](C)(COc1ccn2c(CC3CC3)nnc2c1C(F)(F)F)c1ccc(F)cc1 (single isomer, unassigned) [Example 24]
25 nM	CO[C@](C)(COc1ccn2c(CC3CC3)nnc2c1C(F)(F)F)c1ccc(F)cc1 (single isomer, unassigned) [Example 25]
0.2 nM	COc1cccc(F)c1[C@H]1C[C@@H]1COc1ccn2c(CC3CC3)nnc2c1C(F)(F)F (single isomer, unassigned) [Example 35]
0.2 nM	COc1cccc(F)c1[C@@H]1C[C@H]1COc1ccn2c(CC3CC3)nnc2c1C(F)(F)F (single isomer, unassigned) [Example 36]
0.6 nM	COc1ccccc1[C@H]1C[C@@H]1COc1ccn2c(CC3CC3)nnc2c1C(F)(F)F (single isomer, unassigned) [Example 39]
1.4 nM	COc1ccccc1[C@@H]1C[C@H]1COc1ccn2c(CC3CC3)nnc2c1C(F)(F)F (single isomer, unassigned) [Example 40]
2.2 nM	FC(F)(F)Oc1ccccc1[C@H]1C[C@@H]1COc1ccn2c(CC3CC3)nnc2c1C(F)(F)F (single isomer, unassigned) [Example 41]
1.9 nM	FC(F)(F)Oc1ccccc1[C@@H]1C[C@H]1COc1ccn2c(CC3CC3)nnc2c1C(F)(F)F (single isomer, unassigned) [Example 42]

SMILES	EC50
CC(COc1ccn2c(CC3CC3)nnc2c1C(F)(F)F)c1ccc(F)cc1 (racemic) [Example 4, 3-(Cyclopropylmethyl)-7-(2-(4-fluorophenyl)propoxy)-8-(trifluoromethyl)-[1,2,4]triazolo[4,3-a]pyridine, TFA salt]	10 nM
FC(F)(F)c1c(OC[C@H]2C[C@@H]2c2ccc(Cl)cc2)ccn2c(CC3CC3)nnc12 (racemic) [Example 31, (±)-7-(((1S,2S)-2-(4-chlorophenyl)cyclopropyl)methoxy)-3-(cyclopropylmethyl)-8-(trifluoromethyl)-[1,2,4]triazolo[4,3-a]pyridine]	1.3 nM
Fc1ccc([C@H]2C[C@H](Oc3ccn4c(C5CC5(F)F)nnc4c3C(F)(F)F)C2)cc1 (mixture of isomers) [Example 98, (±)-3-(2,2-Difluorocyclopropyl)-7-((1r,3r)-3-(4-fluorophenyl)cyclobutoxy)-8-(trifluoromethyl)-[1,2,4]triazolo[4,3-a]pyridine]	5.1 nM

— US9738642B2, “Triazolopyridine ether derivatives and their use in neurological and pyschiatric disorders” (BRISTOL-MYERS SQUIBB COMPANY, priority 2013, dated 2017)
